Measured values reported in the OPERA property sets (Mansouri et al. 2018).

Conditions: not given

SMILES	log10 vapour pressure (mmHg)	melting point [°C]	boiling point [°C]	log10 Koc (L/kg)	ready biodegradability	log10 Henry constant (atm·m³/mol)
Clc1cccc(Cl)c1Oc1ccccc1	-2.89					
CC1=CC(=O)c2c(O)cccc2C1=O		78.5				
CCCCCCCCN(C)CCCCCCCC		-30.1				
CCCCCCC1CCCCC1	-0.943	-43	224			
C[C@@H]1CC[C@H]2C(C)(C)[C@H]3C[C@@]12CC[C@@]3(C)O		86				
CC(=O)CCc1ccco1			203			
CC(=O)C(C)Cl (configuration not stated)			115			
O=C1C(Cl)=C(Cl)C(=O)c2ccccc21	-5.96	195		3.98	not readily biodegradable	
COc1cc(C=O)ccc1O	-3.93	81.5	285		readily biodegradable	
OC[C@H]1O[C@@](CO)(O[C@H]2O[C@H](CO)[C@@H](O)[C@H](O)[C@H]2O)[C@@H](O)[C@@H]1O		186				
COc1c(OC)c(OC(C)=O)c2ccccc2c1OC(C)=O		138				
CN(C)c1cccc2c(S(=O)(=O)Cl)cccc12		70				
CC(C)=CCCC=C(C)C		-74.4	166			
O=C(O)Cc1ccc(O)cc1		152				
NCCCCCCCCCCC(=O)O		191				
CCCN(C(C)=O)c1ccccc1		49	268			
N#Cc1c(Cl)c(Cl)c(Cl)c(Cl)c1C#N					not readily biodegradable	
Clc1ccc(Cl)nc1		60.5				
CC1(C)COC1			80.6			
CN(C)c1ccc(C=Cc2ccccc2)cc1		150				
c1ccc(-c2ccncc2)nc1		61.5	281			
COc1cc2c(c(OC)c1OC)-c1ccc(OC)c(=O)cc1[C@@H](NC(C)=O)CC2		156				

SMILES	log10 vapour pressure (mmHg)	melting point [°C]	boiling point [°C]	log10 Koc (L/kg)	ready biodegradability	log10 Henry constant (atm·m³/mol)
c1ccc2c(Nc3cccc4ccccc34)cccc2c1		115				
Nc1c([N+](=O)[O-])cccc1[N+](=O)[O-]		142				
CC1OCCO1			81.5			
C=COC=O	2.5					
CN(C)C(=O)Nc1ccccc1	-4.43	134		1.4	readily biodegradable	
Cc1ccc(NO)cc1		96				
CCOC(=O)C1CC1			134			
N#CCCOCCC#N	-3.76	-26.3	306		readily biodegradable	
CC(C)CCCCCCCOC(=O)c1ccccc1C(=O)OCCCCCCCC(C)C	-6.28	-45.6			readily biodegradable	
COC(=O)c1cccc(C)c1S(=O)(=O)NC(=O)Nc1nc(OCC(F)(F)F)nc(N(C)C)n1				1.84		
CC1CC(C)NC(C)C1 (configuration not stated)			145			
O=C(O)Cc1cccnc1		144				
CCc1ccccn1	0.689	-63.1	149			-4.78
c1ccc2ncncc2c1		48	241			
O=c1ccc2cc3ccoc3c(O)c2o1		252				
CCOCC(=O)O			206			
O=CC=Cc1ccccc1	-1.54	-7.5	246			
C#C/C=C\C			48.4			
CCCCCCCCCCCC(=O)NCCC[N+](C)(C)CC(=O)[O-]					readily biodegradable	
Cc1cc(C)n(-c2ccccc2)n1			273			
CCCCCCCCCCCCCCCCCCCc1ccccc1		40	419			
O=C(CBr)c1ccccc1		50.5				

SMILES	log10 vapour pressure (mmHg)	melting point [°C]	boiling point [°C]	log10 Koc (L/kg)	ready biodegradability	log10 Henry constant (atm·m³/mol)
CCCCCCCCCCCCCCCCCC(N)=O		109				
CCCCc1cccs1			182			
COc1ccc(CCl)cc1		24.5	262			
C=CCCCCl			105			
NC(=O)C#CC#CC#CCO		140				
CC(O)[C@H]1CC[C@H]2[C@@H]3CC[C@@H]4C[C@@H](O)CC[C@]4(C)[C@H]3CC[C@]12C (some centres not stated)		244				
CCCC(=O)OC(=O)CCC	-0.548	-75	200			
O=C1C(Cl)=C(Nc2ccccc2)C(=O)c2ccccc21		215				
CC(O)CNC1CCCCC1 (configuration not stated)	-1.8					
N#C[S-].[K+]		173				
S=C(NC1CCCCC1)NC1CCCCC1					not readily biodegradable	
Cc1ccc(O)cc1N		158				
CSC(=O)c1cccc2nnsc12	-5.48	133	267			
CCN1CCCC1CNC(=O)c1cc(S(=O)(=O)CC)c(N)cc1OC (configuration not stated)		126				
NC(=O)c1cccc(Br)c1		155				
CC(=O)c1ccc(O)cc1O		146				
NCCCC1OCC2(CO1)COC(CCCN)OC2 (configuration not stated)					not readily biodegradable	
OCC1CCCCC1		-43	183			
O=C(O)c1ccc(O)c(O)c1O		221				
CCCOC(=O)c1ccccc1	-0.867	-51.6	211			
CC1OC(C)OC(C)O1 (configuration not stated)	1.04	12.6	124		not readily biodegradable	

Same assay, conditions: fish

SMILES	log10 BCF	log10 biotransformation half-life (days)
COc1cc(Cl)c(Cl)c(Cl)c1	3.09	
Oc1ccc(Cc2ccccc2)cc1	1.33	-0.86
c1ccc(-c2ccccc2-c2ccccc2)cc1	3.48	0.86
ClC=C(Cl)Cl	1.2	-0.41
CC(C)[N+](=O)[O-]	0.92	-1.2
CC(C)(C)c1cc(-c2ccccc2)cc(C(C)(C)C)c1O	3.78	1.16
CCCCCCC1CCCCC1		0.7
CC(C)CCCCCCCOC(=O)c1ccccc1C(=O)OCCCCCCCC(C)C	1.16	
S=C(NC1CCCCC1)NC1CCCCC1	0.64	
CC1OC(C)OC(C)O1 (configuration not stated)	0.48	
